Data taken from patent publication US20040076614A1, “Symbiotic regenerative agent” (priority 2001, published 2004).

Tested on: depression with gastro-intestinal over-growth with Aspergillus and Candida yeasts
Experiment: Antidepressive effectiveness (proband tests), multi-step method
Type: in vivo, human
Design: key: − negative; + positive
Details: Level 0 antidepressants (Seroxat); Level 1 1 g/day oral 4 weeks; Level 2 2 g daily oral 4 weeks after level 1
From the text: Antidepressive effectiveness (2 proband tests/female 1/male 1)
Diseases such as depressions can often be treated in an exclusively symptomatic way with psychopharmaceuticals. However, mycoses/mycotoxins may be the initial cause of such diseases. The object was to eliminate the gastro-intestinal over-growth with Aspergillus and Candida yeasts using BHQ (see also Patent Application EP 00 124 497), and to apply BHQ R6 regenerative agent in a multi-step method.
Level 0: Depression conservatively treated with antidepressants (Seroxat®). The general state of health was subjectively reported as non-satisfactory; in part, depression attacks occurred at different times of day (e.g., in the evening), so that the dosage was increased. The microbiological detection of Candida spec. and Aspergillus spec. was positive. The probands complained about a high weight increase (“spongy feeling”).
Level 1: For 4 weeks, BHQ “flavor-containing medicament” was administered orally once a day for the decontamination of the mycosis and/or any mycotoxins present (1 g/day).
Level 2: As a next step after level 1, BHQ R6 regenerative agent (2 g daily) was administered orally for 4 weeks.

## Fc1ccc([C@@H]2CCNC[C@H]2COc2ccc3c(c2)OCO3)cc1 [Seroxat]
  General health: −
  Weight increase: +
  microbiological gastro-intestinal detection: Candida spec. Aspergillus spec.: +
  part. status: +
